Experimental data published in patent US8841309B2, “Substituted pyrazines and their use in the treatment of disease” (Boehringer Ingelheim International GmbH, priority 2012, dated 2014).
Where a name gives a salt, the structure may show the parent alone.

The molecules below were run against T1, ENaC (Mus musculus, UniProt Q61180+Q9WU38+Q9WU39) (assay: Ussing chamber: short circuit current (I_sc) in mouse kidney M-1 cells, amiloride-sensitive). Details: compound applied to apical solution, 37° C.
T1 construct: Mouse kidney M-1 cells were cultivated in DMEM containing 5% FCS and 5 μM dexamethasone; endogenous in cells; host or cells: mouse kidney M-1 cells
T1 sequence (Q61180 1-699): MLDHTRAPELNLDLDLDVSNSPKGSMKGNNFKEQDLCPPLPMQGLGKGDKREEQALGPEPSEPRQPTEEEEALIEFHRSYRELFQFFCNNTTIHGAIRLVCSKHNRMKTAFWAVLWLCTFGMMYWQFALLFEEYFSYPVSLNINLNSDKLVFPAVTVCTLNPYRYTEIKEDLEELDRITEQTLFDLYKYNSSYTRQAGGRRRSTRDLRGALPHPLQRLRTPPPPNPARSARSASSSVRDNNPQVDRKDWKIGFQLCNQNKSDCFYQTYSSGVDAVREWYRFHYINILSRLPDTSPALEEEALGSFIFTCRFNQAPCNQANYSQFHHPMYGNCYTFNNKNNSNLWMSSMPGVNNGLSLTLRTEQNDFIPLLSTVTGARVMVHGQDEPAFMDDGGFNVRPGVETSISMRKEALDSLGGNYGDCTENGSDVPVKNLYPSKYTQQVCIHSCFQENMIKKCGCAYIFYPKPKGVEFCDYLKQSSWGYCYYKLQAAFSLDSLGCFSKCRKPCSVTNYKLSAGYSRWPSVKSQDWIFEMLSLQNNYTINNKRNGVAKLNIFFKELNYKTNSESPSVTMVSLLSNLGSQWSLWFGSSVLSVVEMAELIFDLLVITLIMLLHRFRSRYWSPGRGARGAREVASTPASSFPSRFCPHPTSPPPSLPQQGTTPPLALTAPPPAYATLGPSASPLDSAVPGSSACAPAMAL
T1 sequence (Q9WU38 1-638): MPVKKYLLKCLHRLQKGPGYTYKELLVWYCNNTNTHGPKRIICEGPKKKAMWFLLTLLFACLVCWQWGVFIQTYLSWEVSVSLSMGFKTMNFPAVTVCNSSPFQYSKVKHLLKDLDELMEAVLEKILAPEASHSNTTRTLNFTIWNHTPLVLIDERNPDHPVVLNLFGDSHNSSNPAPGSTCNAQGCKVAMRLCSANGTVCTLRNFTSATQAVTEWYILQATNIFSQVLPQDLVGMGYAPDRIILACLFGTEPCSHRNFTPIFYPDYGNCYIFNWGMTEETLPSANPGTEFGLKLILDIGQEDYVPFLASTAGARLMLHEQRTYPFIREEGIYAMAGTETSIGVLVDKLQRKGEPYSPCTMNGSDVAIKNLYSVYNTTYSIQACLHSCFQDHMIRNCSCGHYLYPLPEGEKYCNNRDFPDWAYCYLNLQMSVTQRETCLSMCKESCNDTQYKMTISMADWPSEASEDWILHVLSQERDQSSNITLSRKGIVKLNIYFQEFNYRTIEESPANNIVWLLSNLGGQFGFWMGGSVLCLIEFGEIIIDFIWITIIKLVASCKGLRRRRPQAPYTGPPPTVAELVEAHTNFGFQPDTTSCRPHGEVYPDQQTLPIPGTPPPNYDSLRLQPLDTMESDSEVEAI
T1 sequence (Q9WU39 1-655): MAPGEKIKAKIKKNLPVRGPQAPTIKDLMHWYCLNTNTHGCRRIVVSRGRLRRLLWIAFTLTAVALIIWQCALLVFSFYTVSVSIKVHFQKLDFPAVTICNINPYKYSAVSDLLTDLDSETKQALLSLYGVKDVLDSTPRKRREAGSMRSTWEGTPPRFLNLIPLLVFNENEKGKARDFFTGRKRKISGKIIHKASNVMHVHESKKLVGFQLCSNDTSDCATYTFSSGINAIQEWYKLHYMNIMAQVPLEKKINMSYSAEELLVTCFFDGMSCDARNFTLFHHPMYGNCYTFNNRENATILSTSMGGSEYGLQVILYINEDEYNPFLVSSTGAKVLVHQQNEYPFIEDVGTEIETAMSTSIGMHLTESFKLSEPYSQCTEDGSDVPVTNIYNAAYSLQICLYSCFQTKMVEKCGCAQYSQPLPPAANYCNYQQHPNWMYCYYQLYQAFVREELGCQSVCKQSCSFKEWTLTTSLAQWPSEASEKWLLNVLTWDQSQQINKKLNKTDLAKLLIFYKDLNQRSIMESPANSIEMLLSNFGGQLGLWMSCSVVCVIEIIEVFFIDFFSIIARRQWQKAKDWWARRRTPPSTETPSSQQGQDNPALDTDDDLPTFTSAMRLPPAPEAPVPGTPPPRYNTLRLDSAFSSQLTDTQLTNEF
Type: cell-based
Protocol: Ussing Chamber: Mouse kidney M-1 cells were cultivated in DMEM containing 5% FCS and 5 μM dexamethasone for 10 to 12 days on polyester transwell filters. Filters were inserted into a teflon-coated well-plate which fit into the in-house ussing chamber system. Prior to measurement the medium of M-1 cells was replaced with Caco-2 transport buffer (Invitrogen, Germany). During measurements, the Ussing chamber temperature was kept at 37° C. Short circuit currents (I_sc) were measured in the voltage-clamp mode using an in-house built amplifier (Boehringer Ingelheim, Biberach) with the software package Lab View for data acquisition and analysis. The transepithelial electrical resistance (TEER) was determined by the application of voltage steps of ±5 mV every 5 sec. Compounds were administered at a final concentration of 3 μM or at increasing concentrations (1-3-10 μM) to the apical solution. At the end of each experiment the amiloride sensitive I_SC was measured by adding 3 μM amiloride to the apical compartment. Results are expressed as inhibition in percent of the amiloride effect or as IC50.

Compared with `NC(=NC(=O)c1nc(Cl)c(N)nc1N)N[C@@H]1C[N+]2(Cc3ccc(F)c(F)c3)CCC1CC2` [Example 38], `N#Cc1cccc(C[N+]23CCC(CC2)[C@H](NC(N)=NC(=O)c2nc(Cl)c(N)nc2N)C3)c1` [Example 33] is 1.7-fold higher in IC50: 23 nM for the first, 38 nM for the second. The first is the more potent here.

Going from `C[N+]1(Cc2ccccc2)CCC[C@H](N/C(N)=N/C(=O)c2nc(Cl)c(N)nc2N)C1` (stereo in doubt) [Example 71, (S)-1-Benzyl-3-[N′-(3,5-diamino-6-chloro-pyrazine-2-carbonyl)-guanidino]-1-methyl-piperidinium chloride] to `COC(=O)c1cccc(C[N+]2(C)CCC[C@H](N/C(N)=N/C(=O)c3nc(Cl)c(N)nc3N)C2)c1` (stereo in doubt) [Example 72, (S)-3-[N′-(3,5-Diamino-6-chloro-pyrazine-2-carbonyl)-guanidino]-1-(3-methoxycarbonyl-benzyl)-1-methyl-piperidinium chloride], the IC50 rises from 81 nM to 122 nM (1.5-fold). The first is the more potent here.

`N/C(=N\C(=O)c1nc(Cl)c(N)nc1N)N[C@@H]1C[N+]2(Cc3ccccc3)CCC1CC2` [Example 6, (S)-1-Benzyl-3-[N′-(3,5-diamino-6-chloro-pyrazine-2-carbonyl)-guanidino]-1-azoniabicyclo[2.2.2]octane bromide] and `N/C(=N\C(=O)c1nc(Br)c(N)nc1N)N[C@@H]1C[N+]2(Cc3ccccc3)CCC1CC2` [Example 6.1, (S)-1-Benzyl-3-[N′-(3,5-diamino-6-bromo-pyrazine-2-carbonyl)-guanidino]-1-azoniabicyclo[2.2.2]octane bromide] are within 1.5-fold of each other in IC50: 28 nM for the first, 29 nM for the second.

Compared with `NC(=NC(=O)c1nc(Cl)c(N)nc1N)N[C@@H]1C[N+]2(CC(=O)NCc3ccc(Cl)cc3)CCC1CC2` [Example 44], `NC(=NC(=O)c1nc(Cl)c(N)nc1N)N[C@@H]1C[N+]2(CC(=O)NCCc3ccccc3)CCC1CC2` [Example 55] is 2-fold lower in IC50: 2 nM for the first, 1 nM for the second.

Going from `NC(=NC(=O)c1nc(Cl)c(N)nc1N)N[C@@H]1C[N+]2(Cc3cscn3)CCC1CC2` [Example 35] to `NC(=NC(=O)c1nc(Cl)c(N)nc1N)N[C@@H]1C[N+]2(Cc3ccc(Cl)s3)CCC1CC2` [Example 29], the IC50 falls from 150 nM to 29 nM (5.2-fold). The second is the more potent here.

First: NC(=NC(=O)c1nc(Cl)c(N)nc1N)N[C@@H]1C[N+]2(Cc3ccc(CO)cc3)CCC1CC2 [Example 17]
Second: COc1ccc(C[N+]23CCC(CC2)[C@H](N/C(N)=N/C(=O)c2nc(Cl)c(N)nc2N)C3)cc1 [Example 7, (S)-3-[N′(3,5-Diamino-6-chloro-pyrazine-2-carbonyl)-guanidino]-1-(4-methoxybenzyl)-1-azoniabicyclo[2.2.2]octane chloride]
The IC50 of the first is 2.6-fold higher: 52 nM for the first, 20 nM for the second.

First: NC(=NC(=O)c1nc(Cl)c(N)nc1N)N[C@@H]1C[N+]2(CC(=O)c3ccccc3)CCC1CC2 [Example 41]
Second: NC(=NC(=O)c1nc(Cl)c(N)nc1N)N[C@@H]1C[N+]2(CC(=O)OCc3ccccc3)CCC1CC2 [Example 39]
The IC50 of the first is 2.7-fold higher: 63 nM for the first, 23 nM for the second. The second is the more potent here.

Going from `NC(=NC(=O)c1nc(Cl)c(N)nc1N)N[C@@H]1C[N+]2(Cc3cccnc3)CCC1CC2` [Example 50] to `NC(=NC(=O)c1nc(Cl)c(N)nc1N)N[C@@H]1C[N+]2(Cc3cccc(SC(F)(F)F)c3)CCC1CC2` [Example 9], the IC50 falls from 104 nM to 3 nM (35-fold). The second is the more potent here.

Going from `NC(=NC(=O)c1nc(Cl)c(N)nc1N)N[C@@H]1C[N+]2(CC(=O)N3CCOCC3)CCC1CC2` [Example 57] to `CCOC(=O)C[N+]12CCC(CC1)[C@H](NC(N)=NC(=O)c1nc(Cl)c(N)nc1N)C2` [Example 42], the IC50 rises from 71 nM to 191 nM (2.7-fold). The first is the more potent here.

Compared with `N=C(NC(=O)c1nc(Cl)c(N)nc1N)N[C@@H]1C[N+]2(CC(=O)N3CCC(C(=O)O)CC3)CCC1CC2` [Example 73.2, (S)-1-[2-(4-Carboxy-piperidin-1-yl)-2-oxo-ethyl]-3-[N′-(3,5-diamino-6-chloro-pyrazine-2-carbonyl)-guanidino]-1-azonia-bicyclo[2.2.2]octane chloride hydrochloride], `NC(=NC(=O)c1nc(Cl)c(N)nc1N)N[C@@H]1C[N+]2(Cc3ccccc3SC(F)(F)F)CCC1CC2` [Example 10] is 4.5-fold lower in IC50: 269 nM for the first, 60 nM for the second. The second is the more potent here.

In the case of `N/C(=N\C(=O)c1nc(Cl)c(N)nc1N)N[C@@H]1C[N+]2(Cc3ccc4ccccc4n3)CCC1CC2` [Example 11, (S)-3-[N′-(3,5-Diamino-6-chloro-pyrazine-2-carbonyl)-guanidino]-1-quinolin-2-ylmethyl-1-azoniabicyclo[2.2.2]octane chloride], the IC50 is reported as 29 nM.
